# Data published in patent US20090232913A1, “Composition for the Control of Cholesterol Levels” (priority 2005, published 2009).
# “Also recorded” adds a separate entry of the source.
# Experiments:
# diabetic rats [1] = test: Serum cholesterol concentrations after 7 day oral treatment of diabetic rats (lovastatin, MKH, combination); format: in vivo; details: for Effect on total cholesterol: 7 day oral dosage; for Effect on HDL levels: 7 days, MKH at 2 mg/kg
# Excerpt: This is significant as HDLs are protective against heart disease (Despres et al., 2000, Atherosclerosis 153: 263-272). […] This is important as low LDL levels are associated with decreased risk of heart disease.
# diabetic rats [2] = test: Serum cholesterol and lipid profile in diabetic rats after 5 days treatment; format: in vivo, Wistar rats; details: for Effect on LDL cholesterol levels: treatment for 5 days
# Protocol: In this study white, adult male Wistar rats with average weights between 200 to 300 grams were used. During the study, the animals had free access to food and water and were exposed to changes of dark and light every 12 hours. Access to the food was restricted 12 hours before measurement of glucose blood level with free access to water. The experiment was performed on a normoglycaemic group (Group 1, 32 rats, 8 per treatment) and diabetic rats (Group 2, 32 rats, 8 per treatment). For the diabetic rat experiments diabetes was induced with intraperitoneal injection of alloxan 100 mg/kg. Alloxan is very well verified diabetogenic substance for inducing diabetes in rats and other animal species (rabbit, dog, mice et […]). See, for example, […]. Coil Physicians Edinb, 32: 134-142, 2002; […], Diabetologia, 31: 337-342, 1988; Shaw et al., Lancet, 11: 384-386, 1943; Goldner & Gomori, Endocrinology, 35: 241-268, 1943. 1). Saline solution, 1 ml/kg, per orally, daily for 5 days (control group); 2). Stevioside, 20 mg/kg, orally, daily for 5 days; 3). […] In the diabetic rat the criterion for successful diabetes induction was blood glucose greater than 20 mmol/L on the third day after the last alloxan dose after 3 hours of fasting with free access to water. 15 minutes after the 5th dose, the animals were exposed to an oral glucose tolerance test (OGTT) using 4 g/kg, orally. Glucose blood concentrations were measured before the treatment, after the 5th dose, before OGTT, and 30 minutes after OGTT. Then the animals were anaesthetised with urethane injected intraperitoneally, 750 mg/kg, and blood samples for further biochemical analyses were taken by cardiopunction. All biochemical analyses of serum were done by standard procedures, as recommended by the International Federation for Clinical Chemistry (IFCC), on automatic spectrophotometer LISA 300 plus with International Quality Control. The following were measured in serum: 1). Triglycerides concentration (GPO-PAP kit obtained from Boehringer Mannheim GmbH (Mannheim, Germany) in accordance with the manufacturers instructions) 2). […] C-peptide concentration. […] Generally the desired outcome was a decrease in low density lipoprotein (LDL), with no concomitant decrease in high density lipoprotein (HDL). It was also hypothesised that there would be a compatibility with glycaemic effects shown in Example 2. The experimental procedures were essentially those described in Example 2.
# normoglycaemic rats [3] = test: Serum cholesterol and lipid profile in normoglycaemic rats after 5 days treatment; format: in vivo, Wistar rats; details: for Changes in HDL serum cholesterol concentrations / Changes in total cholesterol in serum concentrations / LDL serum cholesterol concentrations relative to control values: normoglycaemic / non-diabetic rats, 5 days treatment
# Protocol: In this study white, adult male Wistar rats with average weights between 200 to 300 grams were used. During the study, the animals had free access to food and water and were exposed to changes of dark and light every 12 hours. Access to the food was restricted 12 hours before measurement of glucose blood level with free access to water. The experiment was performed on a normoglycaemic group (Group 1, 32 rats, 8 per treatment) and diabetic rats (Group 2, 32 rats, 8 per treatment). For the diabetic rat experiments diabetes was induced with intraperitoneal injection of alloxan 100 mg/kg. Alloxan is very well verified diabetogenic substance for inducing diabetes in rats and other animal species (rabbit, dog, mice et […]). See, for example, […]. Coil Physicians Edinb, 32: 134-142, 2002; […], Diabetologia, 31: 337-342, 1988; Shaw et al., Lancet, 11: 384-386, 1943; Goldner & Gomori, Endocrinology, 35: 241-268, 1943. 1). Saline solution, 1 ml/kg, per orally, daily for 5 days (control group); 2). Stevioside, 20 mg/kg, orally, daily for 5 days; 3). […] 15 minutes after the 5th dose, the animals were exposed to an oral glucose tolerance test (OGTT) using 4 g/kg, orally. Glucose blood concentrations were measured before the treatment, after the 5th dose, before OGTT, and 30 minutes after OGTT. Then the animals were anaesthetised with urethane injected intraperitoneally, 750 mg/kg, and blood samples for further biochemical analyses were taken by cardiopunction. All biochemical analyses of serum were done by standard procedures, as recommended by the International Federation for Clinical Chemistry (IFCC), on automatic spectrophotometer LISA 300 plus with International Quality Control. The following were measured in serum: 1). Triglycerides concentration (GPO-PAP kit obtained from Boehringer Mannheim GmbH (Mannheim, Germany) in accordance with the manufacturers instructions) 2). […] C-peptide concentration. […] Generally the desired outcome was a decrease in low density lipoprotein (LDL), with no concomitant decrease in high density lipoprotein (HDL). It was also hypothesised that there would be a compatibility with glycaemic effects shown in Example 2. The experimental procedures were essentially those described in Example 2.
# diabetic Wistar rats = test: Blood glucose and OGTT in alloxan-induced diabetic rats; format: in vivo; details: 5 days oral treatment
# Protocol: In this study white, adult male Wistar rats with average weights between 200 to 300 grams were used. During the study, the animals had free access to food and water and were exposed to changes of dark and light every 12 hours. Access to the food was restricted 12 hours before measurement of glucose blood level with free access to water. The experiment was performed on a normoglycaemic group (Group 1, 32 rats, 8 per treatment) and diabetic rats (Group 2, 32 rats, 8 per treatment). For the diabetic rat experiments diabetes was induced with intraperitoneal injection of alloxan 100 mg/kg. Alloxan is very well verified diabetogenic substance for inducing diabetes in rats and other animal species (rabbit, dog, mice et […]). See, for example, […]. Coil Physicians Edinb, 32: 134-142, 2002; […], Diabetologia, 31: 337-342, 1988; Shaw et al., Lancet, 11: 384-386, 1943; Goldner & Gomori, Endocrinology, 35: 241-268, 1943. 1). Saline solution, 1 ml/kg, per orally, daily for 5 days (control group); 2). Stevioside, 20 mg/kg, orally, daily for 5 days; 3). […] In the diabetic rat the criterion for successful diabetes induction was blood glucose greater than 20 mmol/L on the third day after the last alloxan dose after 3 hours of fasting with free access to water. […] Glucose blood concentrations were measured before the treatment, after the 5th dose, before OGTT, and 30 minutes after OGTT. […]
# normoglycaemic rats [4] = test: C peptide serum concentration in normoglycaemic rats; format: in vivo, Wistar rats; details: non-diabetic rats; treatment for 5 days
# Protocol: In this study white, adult male Wistar rats with average weights between 200 to 300 grams were used. During the study, the animals had free access to food and water and were exposed to changes of dark and light every 12 hours. Access to the food was restricted 12 hours before measurement of glucose blood level with free access to water. The experiment was performed on a normoglycaemic group (Group 1, 32 rats, 8 per treatment) and diabetic rats (Group 2, 32 rats, 8 per treatment). For the diabetic rat experiments diabetes was induced with intraperitoneal injection of alloxan 100 mg/kg. Alloxan is very well verified diabetogenic substance for inducing diabetes in rats and other animal species (rabbit, dog, mice et […]). See, for example, […]. Coil Physicians Edinb, 32: 134-142, 2002; […], Diabetologia, 31: 337-342, 1988; Shaw et al., Lancet, 11: 384-386, 1943; Goldner & Gomori, Endocrinology, 35: 241-268, 1943. 1). Saline solution, 1 ml/kg, per orally, daily for 5 days (control group); 2). Stevioside, 20 mg/kg, orally, daily for 5 days; 3). […] 15 minutes after the 5th dose, the animals were exposed to an oral glucose tolerance test (OGTT) using 4 g/kg, orally. Glucose blood concentrations were measured before the treatment, after the 5th dose, before OGTT, and 30 minutes after OGTT. […] The following were measured in serum: 1). […]
# diabetic rats [5] = test: C peptide serum concentration in diabetic rats; format: in vivo, Wistar rats; details: treatment for 5 days
# Protocol: In this study white, adult male Wistar rats with average weights between 200 to 300 grams were used. During the study, the animals had free access to food and water and were exposed to changes of dark and light every 12 hours. Access to the food was restricted 12 hours before measurement of glucose blood level with free access to water. The experiment was performed on a normoglycaemic group (Group 1, 32 rats, 8 per treatment) and diabetic rats (Group 2, 32 rats, 8 per treatment). For the diabetic rat experiments diabetes was induced with intraperitoneal injection of alloxan 100 mg/kg. Alloxan is very well verified diabetogenic substance for inducing diabetes in rats and other animal species (rabbit, dog, mice et […]). See, for example, […]. Coil Physicians Edinb, 32: 134-142, 2002; […], Diabetologia, 31: 337-342, 1988; Shaw et al., Lancet, 11: 384-386, 1943; Goldner & Gomori, Endocrinology, 35: 241-268, 1943. 1). Saline solution, 1 ml/kg, per orally, daily for 5 days (control group); 2). Stevioside, 20 mg/kg, orally, daily for 5 days; 3). […] Glucose blood concentrations were measured before the treatment, after the 5th dose, before OGTT, and 30 minutes after OGTT. […] The following were measured in serum: 1). […]
Structure (SMILES),Effect on total cholesterol (diabetic rats [1]),Effect on HDL levels (diabetic rats [1]; Lovastatin 20 mg/kg),"Effect on LDL levels (diabetic rats [1]; 7 days oral treatment, MKH 2 mg/kg, Lovastatin 20 mg/kg)",Effect on LDL:HDL ratio (diabetic rats [1]; by Day 7),Changes in total cholesterol in serum concentrations (diabetic rats [2]; 5 days treatment),Effect on LDL:HDL ratio (diabetic rats [2]; 5 days treatment),"Effect on HDL levels (diabetic rats [2]; 5 days, MKH at 4 mg/kg)","LDL: HDL Ratio (ratios of means) (diabetic rats [2]; n = 8, after 5 days treatment)",Effect on LDL cholesterol levels (diabetic rats [2]),Changes in HDL serum cholesterol concentrations (normoglycaemic rats [3]),Changes in total cholesterol in serum concentrations (normoglycaemic rats [3]),LDL serum cholesterol concentrations relative to control values (normoglycaemic rats [3]),"LDL: HDL Ratio (ratios of means) (normoglycaemic rats [3]; normoglycaemic rats, n = 8, after 5 days treatment)",Effect on glucose levels both before and after the OGTT (diabetic Wistar rats),Effect on C peptide levels (normoglycaemic rats [4]),Effect on C-peptide (diabetic rats [5])
"CC[C@H](C)C(=O)O[C@H]1C[C@@H](C)C=C2C=C[C@H](C)[C@H](CC[C@@H]3C[C@@H](O)CC(=O)O3)[C@H]21 [Lovastatin, reference compound]",reduced total cholesterol by a similar amount,reduced HDLs significantly,,,,,,,,,,,,,,
"C[C@H](CCC(=O)O)[C@H]1CC[C@H]2[C@@H]3[C@H](O)C[C@@H]4C[C@H](O)CC[C@]4(C)[C@H]3CC(=O)[C@]12C [MKH, 3α,7α-dihydroxy-12-oxo-5β-cholanate]",reduced total cholesterol by a similar amount,this effect was not observed; also recorded: did not do so,very highly significant decrease in LDL levels; also recorded: significantly greater than that achieved by Lovastatin,significant decrease in the LDL:HDL ratio,no significant changes,slight increase in LDL:HDL ratio,A decrease was observed,1.12,decreases in LDL levels and while these were not statistically significant,no significant changes,no significant changes,significantly decreased (one third of control values),0.01,significant decrease in glucose levels,"Neither stevioside or 3α,7α-dihydroxy-12-oxo-5β-cholanate alone had statistically significant effects",
"C=C1C[C@@]23CC[C@H]4[C@@](C)(CCC[C@@]4(C)C(=O)O[C@@H]4O[C@H](CO)[C@@H](O)[C@H](O)[C@H]4O)[C@@H]2CC[C@]1(O[C@@H]1O[C@H](CO)[C@@H](O)[C@H](O)[C@H]1O[C@@H]1O[C@H](CO)[C@@H](O)[C@H](O)[C@H]1O)C3 [Stevioside, stevioside]",,,,,no significant changes,,,,highly significant decrease in LDL cholesterol levels,no significant changes,no significant changes,significantly decreased (one third of control values),,,"Neither stevioside or 3α,7α-dihydroxy-12-oxo-5β-cholanate alone had statistically significant effects",significant increases in C-peptide
